Measurements as given in patent US20200345637A1, “SUSPENSION COMPOSITIONS OF MULTI-TARGET INHIBITORS” (AIVIVA BIOPHARMA, INC., priority 2018, published 2020).
In brackets after ≈: the same amount, converted by molar mass. Several values for one entry are separate records, joined by “and”; a condition that tells them apart may be missing. Equal values may be shown once. Read-outs that look alike come from different tables or passages of the source.

How the values were obtained:
[1] = Pharmacokinetics and distribution after intraprostate injections in rats (Example 8); details: for Plasma concentrations Mean: intraprostate injection
Description: (§2) This study investigated the pharmacokinetics and distribution of axitinib, sorafenib, pirfenidone, and riociguat after intraprostate injections in Wistar rats (n=6-7 per treatment group). Axitinib, sorafenib and riociguat, as 1% w/w suspension, and pirfenidone as 2.5% suspension were administered as single intraprostate injection (a total of 0.2 mL) on Days 15 and 29 in this 42-day study.

[2] = Local tolerance and ocular distribution, topical instillation three times daily for 5 days
Description: (§3) This study evaluated the local tolerance of vehicle, axitinib, pirfenidone, sorafenib and lenvatinib and ocular distribution of axitinib, sorafenib and lenvatinib (0.3% w/w) when administered by topical ocular instillation in the eyes of New Zealand white rabbits (n=6 per group). […] On Dosing Day 5, the animals were sacrificed and eyes were enucleated. Ocular and plasma concentrations of select compounds were measured by LC-MS/MS.

[3] = Terminal sterilization and stability assay of formulated suspension; assay type: physicochemical; details: for Assay (% of labeled claim) of Formulated Suspension, 4 months (40° C./75% RH) / Assay (% of labeled claim) of Formulated Suspension, 6 weeks (40° C./75% RH) / Assay (% of labeled claim) of Formulated Suspension, Initial: Gamma irradiation
Source text: (§1) Examples 1-3 depict the results of physical testing of some subject formulations.

[4] = Skin pharmacokinetics after single intradermal injection in minipigs; details: over 28 days
Description: Pharmacokinetics of axitinib and nintedanib was investigated after a single intradermal injection of 0.1% and 1% suspensions to the dorsum of Yucatan minipigs. The dosing volume was 0.1 mL for each injection. Concentrations of drugs in the epidermis and dermis over 28 days at the injection site and at 2 cm away from the injection site were measured using LCMS/MS method.

[5] = system: linear incision wound sites; assay: Intradermal injection along linear incision wounds, histological evaluation; assay type: in vivo, minipigs; details: for granulation tissue formation compared to vehicle treated control wounds / presence of myofibroblasts compared to vehicle treated control wounds: 2% suspension (sorafenib 1% suspension); for SMA staining / dermis fibrin / dermis fibroplasia / dermis provisional matrix / epidermis hyperplasia / inflammation / subcutis fibroplasia / subcutis mixed cell infiltrate: microscopic grade over 29 days
Description: The purpose of this study was to evaluate the suspension formulation when administered via intradermal injection with axitinib, nintedanib, sorafenib, and lenvatinib to the dorsal skin along linear incisions of minipigs.
Four male minipigs were dosed. Animals were dosed once via intradermal injection along the edges of each of 10 wound sites for each animal (5 wounds on each side of the dorsum [perpendicular to the spine], approximately 3 cm in length and 3 cm distance from the spine). Axitinib, nintedanib, lenvatinib, and the vehicle control article were administered via eight 0.1 mL intradermal injections around each respective wound site (one injection/cm on both sides of the wound), for a total volume of 0.8 mL/wound site. Sorafenib was administered via the same method at a volume of 0.2 mL/injection, for a total volume of 1.6 mL/wound site. The vehicle control article was Vehicle for Test Articles axitinib, nintedanib, lenvatinib, and sorafenib.
A generalized measure of inflammation, including inflammatory cell infiltrate, fibrin deposition, fibroplasia, epithelial hyperplasia and areas of tissue necrosis were assessed microscopically. […] For test agent treated wounds, all were graded as slight on Day 4, and there was no consistent difference over time as compared to the control group.

[6] = rat, in vivo
Description: as §2

[7] = Suspension physical testing: particle size, pH, osmolality, syringeability; assay type: physicochemical; parameters: API Raw Material PSD D50 / Formulated Suspension Particle size distribution D50 / API Raw Material PSD D90 / Formulated Suspension Particle size distribution D90: unit not given here; details: for Formulated Suspension Syringeability: needle gauge passed
Source text: as §1

[8] = systemic; literature or US label; cited from earlier work
[9] = rabbit, in vivo
Description: as §3

[10] = Aqueous solubility of multi-target inhibitors; assay type: physicochemical; details: for solubility: aqueous (not further specified)
Source text: Non-limiting examples of the useful multi-target inhibitors and their physicochemical forms are given in Table 1 with aqueous solubility information.

[11] = two weeks after the second biweekly intraprostate injection

Compound | Plasma concentrations Mean ([1]; Study Day 15, 24 h) | Plasma concentrations Mean ([1]; Study Day 29, 24 h) | Plasma concentrations Mean ([1]; Study Day 42, 0 h) | Prostate concentrations Mean [1, 11] | Assay (% of labeled claim) of Formulated Suspension, 4 months (40° C./75% RH) [3] | Assay (% of labeled claim) of Formulated Suspension, 6 weeks (40° C./75% RH) [3] | Assay (% of labeled claim) of Formulated Suspension, Initial ([3]; initial) | granulation tissue formation compared to vehicle treated control wounds [5] | presence of myofibroblasts compared to vehicle treated control wounds [5] | SMA staining [5] | dermis fibrin [5] | dermis fibroplasia [5] | API Raw Material PSD D50 [7] | API Raw Material PSD D90 [7] | Formulated Suspension Osmolality [7] | Formulated Suspension Particle size distribution D50 [7] | Formulated Suspension Particle size distribution D90 [7] | Formulated Suspension pH [7] | Formulated Suspension Syringeability [7] | solubility [10] | other results
CNC(=O)c1ccccc1Sc1ccc2c(/C=C/c3ccccn3)n[nH]c2c1 [Axitinib] | 1.72 ng/mL | 1.49 ng/mL | 0.33 ng/mL | 718 µg/g | 95.2 % of labeled claim and 100.9 % of labeled claim | 97.8 % of labeled claim and 98.5 % of labeled claim | 102.0 % of labeled claim and 100.7 % of labeled claim | delay in granulation tissue formation | prolonged presence of myofibroblasts | minimal to moderate | slight to moderate | none to slight | D50: 5.5 | D90: 9.9 | 206 mOsm/kg | D50: 5.8 | D90: 15.6 | 7.6 | Pass 25G | 2 µg/mL (≈ 5.17 µM) | concentration at 5 day of dosing ([2]; New Zealand White, rabbit, plasma, topical, 35 μl eyedrop of 0.3% w/w to the right eye, three times daily): 0.29 ng/mL; Assay (% of labeled claim) of Formulated Suspension, 4 months (40° C./75% RH) (bottom) ([3]; Autoclave, bottom, tested at 3 months instead of 4 months, 40° C./75% RH): 103.2 % of labeled claim; Assay (% of labeled claim) of Formulated Suspension, Initial (bottom) ([3]; Autoclave, initial, bottom): 100.1 % of labeled claim; Assay (% of labeled claim) of Formulated Suspension, Initial (top) ([3]; Autoclave, initial, top): 98.7 % of labeled claim; Assay (% of labeled claim) of Formulated Suspension, 4 months (40° C./75% RH) (top) ([3]; Autoclave, top, tested at 3 months instead of 4 months, 40° C./75% RH): 101.2 % of labeled claim; mean concentration in the dermis, 2 cm away from the injection site ([4]; 0.1% intradermal injection): 1.2-8 ng/gm; mean concentration in the epidermis, 2 cm away from the injection site ([4]; 0.1% intradermal injection): 4.5-55.2 ng/gm; mean concentration in the dermis, 2 cm away from the injection site ([4]; 1% intradermal injection): 2.9-150 ng/gm; mean concentration in the epidermis, 2 cm away from the injection site ([4]; 1% intradermal injection): 42.3-723 ng/gm; dermis provisional matrix [5]: marked to moderate; epidermis hyperplasia [5]: minimal to slight; inflammation [5]: slight to moderate; subcutis fibroplasia [5]: none to moderate; subcutis mixed cell infiltrate [5]: moderate to minimal; drug concentration in prostate [6]: remained high; drug release from prostate into systemic circulation [6]: prolonged drug release; terminal plasma half-life in man [8]: 2 to 5 h; concentrations in the choroid and retina [9]: significant concentrations; drug concentrations in anterior tissues of conjunctiva, sclera and cornea [9]: high drug concentrations
Cc1ccc(=O)n(-c2ccccc2)c1 [Pirfenidone] | 0.381 ng/mL | 0.454 ng/mL | BLQ | 0.014 µg/g | 91.5 % of labeled claim and 94.9 % of labeled claim | 89.9 % of labeled claim and 95.7 % of labeled claim | 90.9 % of labeled claim and 97.2 % of labeled claim | – | – | – | – | – | D50: 57 | D90: 74 | 312 mOsm/kg | D50: 44 | D90: 72 | 7.6 | Pass 23G | 3000 µg/mL (≈ 16200 µM) | –
COC(=O)N(C)c1c(N)nc(-c2nn(Cc3ccccc3F)c3ncccc23)nc1N [Riociguat] | – | – | – | – | 99.9 % of labeled claim and 99.7 % of labeled claim | 98.7 % of labeled claim and 98.0 % of labeled claim | 101.9 % of labeled claim and 100.6 % of labeled claim | – | – | – | – | – | D50: 16 | D90: 29 | 201 mOsm/kg | D50: 9 | D90: 17 | 7.6 | Pass 27G | 8 µg/mL (≈ 18.9 µM) | Prostate concentrations Mean ([6]; male, Wistar, 2 weeks after the second injection): 492 µg/g; drug concentration in prostate [6]: remained high; drug release from prostate into systemic circulation [6]: prolonged drug release
CNC(=O)c1cc(Oc2ccc(NC(=O)Nc3ccc(Cl)c(C(F)(F)F)c3)cc2)ccn1.Cc1ccc(S(=O)(=O)O)cc1 [Sorafenib Hemi Tosylate] | – | – | – | 892 µg/g | 99.9 % of labeled claim and 99.6 % of labeled claim | 100.7 % of labeled claim and 100.4 % of labeled claim | 98.9 % of labeled claim and 101.6 % of labeled claim | delay in granulation tissue formation | prolonged presence of myofibroblasts | slight to minimal | minimal to none | minimal to slight | D50: 18 | D90: 39 | 216 mOsm/kg | D50: 11 | D90: 20 | 7.3 | Pass 27G | – | drug release from prostate into systemic circulation ([1]; after single intraprostate injections): prolonged drug release; drug concentration in prostate [1, 11]: remained high; concentrations in the choroid and retina ([2]; 0.3% w/w topical instillation): significant concentrations; drug concentrations in anterior tissues of conjunctiva, sclera and cornea ([2]; 0.3% w/w topical instillation): high drug concentrations; plasma concentrations, mean (±SD) ([2]; Day 5 of dosing, 0.3% w/w 35 μl eyedrop three times daily): 5.09 (±1.27) ng/mL; dermis provisional matrix [5]: slight to none; epidermis hyperplasia [5]: none; inflammation [5]: moderate to minimal; subcutis fibroplasia [5]: minimal to moderate; subcutis mixed cell infiltrate [5]: slight to marked; Aqueous Solubility [10]: 6 µg/mL
CCN(CC)CCNC(=O)c1c(C)[nH]c(/C=C2\C(=O)Nc3ccc(F)cc32)c1C [Sunitinib] | – | – | – | – | 100.0 % of labeled claim and 95.6 % of labeled claim | 98.9 % of labeled claim and 96.5 % of labeled claim | 96.7 % of labeled claim and 95.1 % of labeled claim | – | – | – | – | – | D50: 25 | D90: 52 | 201 mOsm/kg | D50: 12 | D90: 26 | 7.6 | Pass 25G | 7 µg/mL (≈ 17.6 µM) | –
CNC(=O)c1cc(Oc2ccc(NC(=O)Nc3ccc(Cl)c(C(F)(F)F)c3)c(F)c2)ccn1 [regorafenib, Regorafenib] | – | – | – | – | – | – | – | – | – | – | – | – | – | – | – | – | – | – | – | – | terminal plasma half-life in man [8]: 28 h
